Data taken from US10683260B2, “Crystalline form of sacubitril sodium salt” (NORATECH PHARMACEUTICALS, INC., priority 2016, dated 2020).

Columns and labels:
[1] = Determination of the hygroscopicity (water absorption in artificial climate chamber); assay type: physicochemical; conditions: for Water absorption, %: open weighing bottle, 25±1° C., relative humidity 43.5±2%; for water content: open container, 25° C., relative humidity 43.5%, 3 hours
Experimental: 1. Take a dry stuffed glass weighing bottle (outer diameter 50 mm, height 15 mm) in the artificial climate chamber (set temperature is 25±1° C., relative humidity is 43.5±2%) and weight it (m1).
2. Take the appropriate amount of the crystalline form in the present invention, and place it in the abovementioned weighing bottle and lay it inside the weighing bottle. The thickness of the test sample is generally about 1 mm. Weight the sample (m2).
3. Uncover the weighing bottle and place it with the bottle cap under constant temperature and humidity (set temperature is 25±1° C., relative humidity is 43.5±2%).
4. Put the cap back on the weighing bottle before weighing, and then weight it (m3). The water absorption percentage for each time point is calculated by the formula=(m3−m2)/(m2−m1)×100%.

AT1 receptor = biological target: T1, AT1 receptor (Homo sapiens, UniProt P30556); conditions: AT1 versus AT2 receptor; background statement; cited from earlier work
T1 sequence (P30556 1-359): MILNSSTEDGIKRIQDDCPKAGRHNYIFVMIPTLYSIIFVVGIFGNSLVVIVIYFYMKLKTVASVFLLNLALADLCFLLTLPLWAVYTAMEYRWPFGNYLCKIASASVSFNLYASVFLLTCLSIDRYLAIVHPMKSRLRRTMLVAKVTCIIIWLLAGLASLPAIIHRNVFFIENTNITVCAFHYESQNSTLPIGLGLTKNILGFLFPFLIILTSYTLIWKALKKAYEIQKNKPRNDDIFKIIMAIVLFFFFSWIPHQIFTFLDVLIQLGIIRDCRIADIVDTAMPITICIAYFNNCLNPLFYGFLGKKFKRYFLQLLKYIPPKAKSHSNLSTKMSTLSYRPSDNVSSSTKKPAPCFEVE

[2] = free acid; background statement; cited from earlier work

Compound | Water absorption, % ([1]; 1.5 h) | Water absorption, % ([1]; 3 h) | also measured
CCOC(=O)[C@H](C)C[C@@H](Cc1ccc(-c2ccccc2)cc1)NC(=O)CCC(=O)[O-].[Na+] [D] | 1.5% | 3.2% | 
CCOC(=O)[C@H](C)C[C@@H](Cc1ccc(-c2ccccc2)cc1)NC(=O)CCC(=O)[O-].[Na+] [B] | 0.5% | 1.0% | 
AngII |  |  | affinity for the AT1 receptor relative to the AT2 receptor (AT1 receptor): 300 times
CCOC(=O)[C@H](C)C[C@@H](Cc1ccc(-c2ccccc2)cc1)NC(=O)CCC(=O)[O-].[Na+] [A] | 0.6% | 1.4% | water content ([1]; listed as crystalline form A): 1.4%
CCOC(=O)[C@H](C)C[C@@H](Cc1ccc(-c2ccccc2)cc1)NC(=O)CCC(=O)[O-].[Na+] [sacubitril sodium salt X, reference compound] | 8.3% | 11.0% | hygroscopicity (in words) ([1]; solid form, no conditions stated): great hygroscopicity
CCOC(=O)[C@H](C)C[C@@H](Cc1ccc(-c2ccccc2)cc1)NC(=O)CCC(=O)[O-].[Na+] [C] | 1.2% | 2.4% | water content ([1]; listed as crystalline form C): 2.4%
CCOC(=O)[C@H](C)C[C@@H](Cc1ccc(-c2ccccc2)cc1)NC(=O)CCC(=O)O [sacubitril, 4-{[(2S,4R)-1-([1,1′-biphenyl]-4-yl)-5-ethoxy-4-methyl-5-oxopentan-2-yl]amino}-4-oxobutanoic acid] |  |  | water solubility (in words) [2]: poor water solubility
CCOC(=O)[C@H](C)C[C@@H](Cc1ccc(-c2ccccc2)cc1)NC(=O)CCC(=O)[O-].[Na+] [E] | 2.4% | 4.3% | 
